Assay results as given in patent US20230190774A1, “METHOD OF USING SUBSTRATES OF AKR1Bl/AKR1B10 AS ANTI-CANCER DRUGS” (Beijing Normal University Hong Kong Baptist University …, priority 2015, published 2023).
Entries after “also recorded” stand apart in the source; their conditions may differ. Like-named read-outs stand apart in the source and are kept apart here. Where a SMILES comes first, the peptide text is derived from it. The star is where a group is joined. Cbz = O=C(OCc1ccccc1)*

Assays:
AKR1B1 [1] = target: AKR1B1 (Homo sapiens, UniProt P15121); settings: ND = no detectable activity or less than 32 nmol/min/mg; cited from earlier work
AKR1B10 [2] = target: T1, AKR1B10 (Homo sapiens, UniProt O60218); test: Enzyme activity assay (NADPH oxidation), purified AKR1B10; assay type: biochemical; settings: 20 mM substrate, pH 7.0, 30° C.
T1 sequence (O60218 whole entry): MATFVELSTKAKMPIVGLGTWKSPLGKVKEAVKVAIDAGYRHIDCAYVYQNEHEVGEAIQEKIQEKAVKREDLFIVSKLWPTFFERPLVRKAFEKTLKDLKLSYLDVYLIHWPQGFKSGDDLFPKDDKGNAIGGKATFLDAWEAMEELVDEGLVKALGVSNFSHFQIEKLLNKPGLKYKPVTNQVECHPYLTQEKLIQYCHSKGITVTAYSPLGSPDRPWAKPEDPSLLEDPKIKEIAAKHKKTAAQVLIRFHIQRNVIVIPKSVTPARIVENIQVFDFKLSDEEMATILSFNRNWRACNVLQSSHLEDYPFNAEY
Protocol: Assay of AKR1B1 and AKR1B10 enzymes activities were conducted in 1 ml of the reaction mixture containing 135 mM sodium phosphate buffer (pH 6.2 for AKR1B1 or pH 7.0 for AKR1B10), 0.2 mM NADPH, 0.3 M ammonium sulfate, 2 µg purified protein and 20 mM of their substrate as indicated. The reaction mix was incubated at 30° C. for 30 minutes (min). Protein-free blank controls were included. The decrease of NADPH was monitored by spectrophotometer at 340 nm. Enzyme activity was calculated as the amount of NADPH oxidized/min/mg of protein (Shen Y et al., Chem Biol Interact. 2011, 191(1-3): 192-198).

[3] = for Death Rate / Death/Total: i.v., n=8
Protocol: ICR mice (18-22 g) were acquired from the Laboratory Animal Services Centre, The Chinese University of Hong Kong. These animals were housed in an animal room with 12 h of day and dark cycles, and the temperature maintained at around 25° C. There were 4 male and 4 female in each treatment and control group. They were treated with either diacetyl or glyceraldehyde. Diacetyl and glyceraldehyde were dissolved with saline and administered to the mice by intravenous injection with the amount indicated. […] Mortality was recorded daily for the calculation of […] (LD50). All surviving animals were euthanized with diethyl-ether at the end of the experiment.

AKR1B10 [4] = target: T1, AKR1B10; settings: ND = no detectable activity or less than 32 nmol/min/mg; cited from earlier work
CaCo2 cells = test: Cytotoxicity assay (cell survival rate, MTT); assay type: cell-based; settings: for Effect on toxicity of glyceraldehyde and diacetyl: BSO with 1.25/0.625 mM substrate, NAC with 2.5/1.25 mM substrate
Protocol: (§1) HepG2 cells, SKOV3 cells, HCT116 cells and CaCo2 cells were cultured in DMEM medium, SW480 cells in 1640 medium, and HT29 cells in McCoy’s 5A medium. All cell culture media were supplemented with 10% FBS, 1% PSN, and cells were cultured in a humidified incubator containing 5% CO2 at 37° C. In cytotoxicity assays, cells were seeded at 1 × 10^5 cells/well in 96 well plates with full medium. In GSH assay and Western blot analysis, cells were seeded at 3× 10^6 cells/well in 6 well plates.
(§2) The AKR1Bs substrates’ cytotoxicity was assessed by cell survival rate using MTT assay. After the cells were treated with the substrates for the length of time indicated, MTT was added to a final concentration of 0.5 mg/ml in each well of a 96-well plate, and the plates were incubated at 37° C. for 4 hour. Then DMSO was added to dissolve the formazan product, the amount of which is proportional to the number of live cells. The absorbance of dissolved dye was measured at 540 nm using an automatic microplate reader.

HCT116 cells = test: Cytotoxicity assay (cell survival rate, MTT); assay type: cell-based; settings: for Effect on toxicity of glyceraldehyde and diacetyl: BSO with 1.25/0.625 mM substrate, NAC with 2.5/1.25 mM substrate
Protocol: as §1, §2

HepG2 cells = test: Cytotoxicity assay (cell survival rate, MTT); assay type: cell-based; settings: for Cytotoxicity of AKR1Bs substrate (cell survival rate): substrate alone, 2DG for 72 hours; for Effect on toxicity of glyceraldehyde and diacetyl: BSO (0.3 mM) with 1.25/0.625 mM substrate, NAC with 2.5/1.25 mM substrate
Protocol: as §1, §2

SKOV3 cells = test: Cytotoxicity assay (cell survival rate, MTT); assay type: cell-based; settings: for Cytotoxicity of AKR1Bs substrate (cell survival rate): substrate alone, 2DG for 72 hours; for Effect on toxicity of glyceraldehyde and diacetyl: BSO (0.3 mM) with 1.25/0.625 mM substrate, NAC with 2.5/1.25 mM substrate
Protocol: as §1, §2

HT29 cells = test: Cytotoxicity assay (cell survival rate, MTT); assay type: cell-based; settings: for Sensitivity to 2DG after pretreatment: pretreated 24 hours before addition of 2DG
Protocol: as §2, with “HepG2 cells, SKOV3 cells, HCT116 cells and CaCo2 cells were cultured in DMEM medium, SW480 cells in 1640 medium, and HT29 cells in McCoy’s 5A medium. […] In cytotoxicity assays, cells were seeded at 1 × 10^5 cells/well in 96 well plates with full medium. In GSH assay and Western blot analysis, cells were seeded at 3× 10^6 cells/well in 6 well plates. The AKR1Bs” for “The AKR1Bs”

SW480 cells = test: Cytotoxicity assay (cell survival rate, MTT); assay type: cell-based; settings: for Sensitivity to 2DG after pretreatment: pretreated 24 hours before addition of 2DG
Protocol: as §2, with “HepG2 cells, SKOV3 cells, HCT116 cells and CaCo2 cells were cultured in DMEM medium, SW480 cells in 1640 medium, and HT29 cells in McCoy’s 5A medium. […] In cytotoxicity assays, cells were seeded at 1 × 10^5 cells/well in 96 well plates with full medium. In GSH assay and Western blot analysis, cells were seeded at 3× 10^6 cells/well in 6 well plates. The AKR1Bs” for “The AKR1Bs”

HepG2 tumor xenograft = settings: 80 mg/kg, tail vein, daily for 21 days
Protocol: Six-week-old male BALB/C nude mice were purchased from the Laboratory Animal Unit of the University of Hong Kong. Mice were allowed to acclimate to laboratory conditions for 1 week before cancer cells injection. […] Treatment was initiated when the tumor grew to about 200±100 mm3. […] Mice were randomized and allocated to different groups. They received daily tail vein injection for 3 weeks of one of the following: glyceraldehyde (500 mg/kg body weight); diacetyl (80 mg/kg body weight); or normal saline. Mice were weighted and the sizes of the tumors were measured with calipers every 3 days. Tumor volumes were calculated with the formula: length×width2/2. Animals were humanely killed at the end of the experiment and their tumors were weighed.

AKR1B1 [5] = test: Western blot of AKR1B1 protein level in treated cells; assay type: cell-based, human
Protocol: as §1
(§3) Cells were lysed on ice with the protein extraction reagent. Total protein (30 µg) per sample were loaded onto 10% SDS-polyacrylamide gels and separated at 75V, and then electrotransferred to polyvinylidene difluoride (PVDF) membranes overnight at 15 V. Membranes were then soaked in 5% nonfat milk in TBS at room temperature for 1 hour and then incubated with rabbit anti-AKR1B1 antibodies (1:3000) or rabbit anti-AKR1B10 antibodies (1:3000) at room temperature for 2 hours. After being washed, the membranes were incubated in HRP-conjugated goat anti-rabbit or goat anti-mouse IgG secondary antibodies (1:5000) for 1 hour at room temperature, followed by washing and incubation with ECL reagents for 1 min. β-actin monoclonal mouse antibodies (1:5000) was used as reference to assess the relative amounts of proteins loaded per lane.

AKR1B10 [6] = test: Western blot of AKR1B10 protein level in treated cells; assay type: cell-based, human
Protocol: as §1, §3

[7] = substrate alone, 2DG for 72 hours

Structure (SMILES): CC(=O)C(C)=O [Diacetyl, diacetyl]
- AKR1B1 activity, amount of NADPH (nmol) oxidized per min per mg of protein (AKR1B1 [1]): 725 nmol/min/mg
- Efficiency as substrate of AKR1B10 (rate of NADPH depletion) (AKR1B10 [2]): better substrate for AKR1B10 than for AKR1B1; also recorded: best substrate
- LD50 ([3]; ICR mice, intravenous injection daily for 14 days): 410 mg/kg BW
- Death Rate ([3]; dose 300 mg/kg BW): 0%
- Death/Total ([3]; dose 300 mg/kg BW): 0/8
- Death Rate ([3]; dose 360 mg/kg BW): 37.5%
- Death/Total ([3]; dose 360 mg/kg BW): ⅜
- Death Rate ([3]; dose 432 mg/kg BW): 62.5%
- Death/Total ([3]; dose 432 mg/kg BW): ⅝
- Death Rate ([3]; dose 518 mg/kg BW): 87.5%
- Death/Total ([3]; dose 518 mg/kg BW): ⅞
- Death Rate ([3]; dose 622 mg/kg BW): 100.0%
- Death/Total ([3]; dose 622 mg/kg BW): 8/8
- AKR1B10 activity, amount of NADPH (nmol) oxidized per min per mg of protein (AKR1B10 [4]): 2329 nmol/min/mg
- Cytotoxicity of AKR1Bs substrate (cell survival rate) (CaCo2 cells; [7]): dose dependently and preferentially kill
- Cytotoxicity of AKR1Bs substrate (cell survival rate) (HCT116 cells; [7]): dose dependently and preferentially kill
- Cytotoxicity of AKR1Bs substrate (cell survival rate) (HepG2 cells): dose-dependently and preferentially kill
- Cytotoxicity of AKR1Bs substrate (cell survival rate) (HepG2 cells; listed as diacetyl): dose dependently and preferentially kill
- Cytotoxicity of AKR1Bs substrate (cell survival rate) (SKOV3 cells): dose-dependently and preferentially kill
- Cytotoxicity of AKR1Bs substrate (cell survival rate) (SKOV3 cells; listed as diacetyl): dose dependently and preferentially kill
- Cytotoxicity of AKR1Bs substrate (cell survival rate) (HT29 cells; [7]): more resistant
- Cytotoxicity of AKR1Bs substrate (cell survival rate) (SW480 cells; [7]): more resistant
- Tumor volume (HepG2 tumor xenograft): significantly reduced
- Tumor weight (HepG2 tumor xenograft): significantly reduced

Structure (SMILES): O=Cc1ccccn1 [Pyridine-2-aldehyde]
- AKR1B1 activity, amount of NADPH (nmol) oxidized per min per mg of protein (AKR1B1 [1]): 632 nmol/min/mg
- AKR1B10 activity, amount of NADPH (nmol) oxidized per min per mg of protein (AKR1B10 [4]): 4645 nmol/min/mg

Structure (SMILES): O=C[C@H](O)[C@@H](O)[C@H](O)[C@H](O)CO [D-Glucose]
- AKR1B1 activity, amount of NADPH (nmol) oxidized per min per mg of protein (AKR1B1 [1]): 129 nmol/min/mg
- AKR1B10 activity, amount of NADPH (nmol) oxidized per min per mg of protein (AKR1B10 [4]): 65 nmol/min/mg

Structure (SMILES): CC(=O)N[C@@H](CS)C(=O)O [NAC, N-acetyl-cysteine]
- Effect on toxicity of glyceraldehyde and diacetyl (CaCo2 cells): able to protect the cells
- Effect on toxicity of glyceraldehyde and diacetyl (HCT116 cells): able to protect the cells
- Effect on toxicity of glyceraldehyde and diacetyl (HepG2 cells): able to protect the cells
- Effect on toxicity of glyceraldehyde and diacetyl (SKOV3 cells): able to protect the cells

Structure (SMILES): O=Cc1ccc([N+](=O)[O-])cc1 [p-Nitrobenzaldehyde]
- AKR1B1 activity, amount of NADPH (nmol) oxidized per min per mg of protein (AKR1B1 [1]): 760 nmol/min/mg
- AKR1B10 activity, amount of NADPH (nmol) oxidized per min per mg of protein (AKR1B10 [4]): 4480 nmol/min/mg

Structure (SMILES): CCCCS(=N)(=O)CCC(N)C(=O)O [BSO, L-buthionine-[S,R]-sulfoximine]
- Effect on toxicity of glyceraldehyde and diacetyl (CaCo2 cells): enhanced the toxicity
- Effect on toxicity of glyceraldehyde and diacetyl (HCT116 cells): enhanced the toxicity
- Effect on toxicity of glyceraldehyde and diacetyl (HepG2 cells): more HepG2 and SKOV3 cells were killed; also recorded: enhanced the toxicity
- Effect on toxicity of glyceraldehyde and diacetyl (SKOV3 cells): more HepG2 and SKOV3 cells were killed; also recorded: enhanced the toxicity

Structure (SMILES): CC(C)C[C@H](NC(=O)[C@H](Cc1ccccc1)NC(=O)c1cnccn1)B(O)O [Bortezomib]
- AKR1B1 protein level (western blot) (AKR1B1 [5]; HT29 cells): increased
- AKR1B1 protein level (western blot) (AKR1B1 [5]; SW480 cells): induced
- Sensitivity to 2DG after pretreatment (HT29 cells): significantly more cells were killed by 2DG
- Sensitivity to 2DG after pretreatment (SW480 cells): significantly more cells were killed by 2DG
- AKR1B10 protein level (western blot) (AKR1B10 [6]; HT29 cells): increased
- AKR1B10 protein level (western blot) (AKR1B10 [6]; SW480 cells): induced only AKR1B1

Structure (SMILES): O=C[C@H](O)[C@@H](O)[C@@H](O)[C@H](O)CO [D-Galactose]
- AKR1B1 activity, amount of NADPH (nmol) oxidized per min per mg of protein (AKR1B1 [1]): 193 nmol/min/mg
- AKR1B10 activity, amount of NADPH (nmol) oxidized per min per mg of protein (AKR1B10 [4]): 65 nmol/min/mg

Structure (SMILES): CC(=O)C=O [Methyglyoxal]
- AKR1B1 activity, amount of NADPH (nmol) oxidized per min per mg of protein (AKR1B1 [1]): 942 nmol/min/mg
- AKR1B10 activity, amount of NADPH (nmol) oxidized per min per mg of protein (AKR1B10 [4]): 7458 nmol/min/mg

Structure (SMILES): CC(C)C[C@@H](C=O)NC(=O)[C@H](CC(C)C)NC(=O)[C@H](CC(C)C)NC(=O)OCc1ccccc1 [MG-132] (Cbz-Leu-Leu-Leu-aldehyde)
- AKR1B1 protein level (western blot) (AKR1B1 [5]; HT29 cells): able to increase
- AKR1B1 protein level (western blot) (AKR1B1 [5]; SW480 cells): able to increase
- Sensitivity to 2DG after pretreatment (HT29 cells): significantly more cells were killed by 2DG
- Sensitivity to 2DG after pretreatment (SW480 cells): significantly more cells were killed by 2DG
- AKR1B10 protein level (western blot) (AKR1B10 [6]; HT29 cells): able to increase
- AKR1B10 protein level (western blot) (AKR1B10 [6]; SW480 cells): able to increase
